Source: US10106534B2 (CELGENE QUANTICEL RESEARCH, INC., priority 2014, dated 2018)

What was measured:
JMJD2C = JMJD2C (Homo sapiens (Human), UniProt Q9H3R0); assay: In vitro enzyme inhibition assay for JMJD2C activity (TR-FRET); type: biochemical
Procedure, shortened: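 Baculovirus JMJD2C (AA 2-372), 0.3 nM, with 300 nM biotin-H3K9me3 peptide and 2 μM α-ketoglutarate in HEPES pH 7.3 containing Fe(II) and ascorbate, 30 min at room temperature, 11-point dilutions. H3K9me2 product by TR-FRET (Eu-antibody/streptavidin-APC, 665/615 ratio); IC50 fitted.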

[1] = system: KYSE-150 esophageal carcinoma cell line; assay: In vitro cell-based assay: cellular proliferation via BrdU incorporation (ELISA); set-up: species or system human; details: KYSE-150, 168 hours compound incubation
Procedure, shortened: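 KYSE-150 cells (JMJD2C-amplified; SMAD4 and TP53 mutant), 2,000/well, were treated after overnight attachment with an 11-point series (100 μM to 2 nM) for 168 h. Proliferation was read by BrdU ELISA (2 h labelling, anti-BrdU-peroxidase, TMB, 450 nm) and IC50 fitted.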

Sequence of JMJD2C (Q9H3R0 2-372): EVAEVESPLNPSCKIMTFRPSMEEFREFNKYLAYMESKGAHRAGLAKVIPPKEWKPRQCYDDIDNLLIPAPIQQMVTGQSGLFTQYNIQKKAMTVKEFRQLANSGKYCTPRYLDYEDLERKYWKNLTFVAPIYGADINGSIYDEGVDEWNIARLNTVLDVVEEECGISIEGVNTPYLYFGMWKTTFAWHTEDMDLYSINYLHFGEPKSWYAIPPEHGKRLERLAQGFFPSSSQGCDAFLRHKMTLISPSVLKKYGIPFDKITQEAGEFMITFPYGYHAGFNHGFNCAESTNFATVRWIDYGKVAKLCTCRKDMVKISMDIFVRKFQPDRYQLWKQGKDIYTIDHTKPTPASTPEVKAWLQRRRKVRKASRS

Row | Compound | IC50 (JMJD2C) | IC50 ([1]; Homo sapiens) | IC50 [1]
1 | CN(c1ccc(C#N)cc1)c1ccc2c(c1)CCC[C@H]2CNc1cnccc1C(=O)O [Example 103, 3-({[(1R)-6-[(4-cyanophenyl)(methyl)amino]-1,2,3,4-tetrahydronaphthalen-1-yl]methyl}amino)pyridine-4-carboxylic acid] | 100 to 1000 nM | 100 to 1000 nM | –
2 | CN(c1ccc(CCO)cc1)c1ccc2c(c1)OCC[C@H]2CNc1cnccc1C(=O)O [Example 207, 3-({[(4R)-7-{[4-(2-hydroxyethyl)phenyl](methyl)amino}-3,4-dihydro-2H-1-benzopyran-4-yl]methyl}amino)pyridine-4-carboxylic acid] | 100 to 1000 nM | 100 to 1000 nM | –
3 | CN(c1ccc2c(c1)OCC[C@H]2CNc1cnccc1C(=O)O)c1ccc2ccoc2c1 [Example 141, 3-({[(4R)-7-[(1-benzofuran-6-yl)(methyl)amino]-3,4-dihydro-2H-1-benzopyran-4-yl]methyl}amino)pyridine-4-carboxylic acid] | 100 to 1000 nM | 100 to 1000 nM | –
4 | O=C(O)c1ccncc1NCC1OCCc2ccccc21 (stereo not drawn) [Example 142, 3-[(3,4-dihydro-1H-2-benzopyran-1-ylmethyl)amino]pyridine-4-carboxylic acid] | 100 to 1000 nM | > 10000 nM | –
5 | O=C(O)c1ccncc1NCC1CCCc2cc(C3CCOCC3)ccc21 (stereo not drawn) [Example 88, 3-({[6-(oxan-4-yl)-1,2,3,4-tetrahydronaphthalen-1-yl]methyl}amino)pyridine-4-carboxylic acid] | 100 to 1000 nM | > 10000 nM | –
6 | O=C(O)c1ccncc1NC[C@@H]1CCCc2cc(Sc3ccc(F)cc3)ccc21 [Example 77, 3-({[(1R)-6-[(4-fluorophenyl)sulfanyl]-1,2,3,4-tetrahydronaphthalen-1-yl]methyl}amino)pyridine-4-carboxylic acid] | 100 to 1000 nM | ≤ 100 nM | –
7 | CCCc1ccc(N(C)c2ccc3c(c2)OCC[C@H]3CNc2cnccc2C(=O)O)cc1 [Example 208, 3-({[(4R)-7-[methyl(4-propylphenyl)amino]-3,4-dihydro-2H-1-benzopyran-4-yl]methyl}amino)pyridine-4-carboxylic acid] | 1000 to 10000 nM | ≤ 100 nM | –
8 | 3-({[(1R)-6-[cyclopentyl(methyl)amino]-1,2,3,4-tetrahydronaphthalen-1-yl]methyl}amino)pyridine-4-carboxylic acid [Example 133] | 100 to 1000 nM | – | 1000 to 10000 nM
9 | COc1ccc(N(C)c2ccc3c(c2)CCC[C@H]3CNc2cnccc2C(=O)O)cn1 [Example 13, 3-({[(1R)-6-[(6-methoxypyridin-3-yl)(methyl)amino]-1,2,3,4-tetrahydronaphthalen-1-yl]methyl}amino)pyridine-4-carboxylic acid] | 100 to 1000 nM | 100 to 1000 nM | –
10 | CN(c1ccc(C2=CCOCC2)cc1)c1ccc2c(c1)CCC[C@H]2CNc1cnccc1C(=O)O [Example 174, 3-({[(1R)-6-{[4-(3,6-dihydro-2H-pyran-4-yl)phenyl](methyl)amino}-1,2,3,4-tetrahydronaphthalen-1-yl]methyl}amino)pyridine-4-carboxylic acid] | 1000 to 10000 nM | ≤ 100 nM | –
11 | COCCN(c1ccc(C2CC2)cc1)c1ccc2c(c1)CCC[C@H]2CNc1cnccc1C(=O)O [Example 163, 3-({[(1R)-6-[(4-cyclopropylphenyl)(2-methoxyethyl)amino]-1,2,3,4-tetrahydronaphthalen-1-yl]methyl}amino)pyridine-4-carboxylic acid] | 1000 to 10000 nM | ≤ 100 nM | –
12 | CN(c1ccc2c(c1)CCC[C@H]2CNc1cnccc1C(=O)O)c1ccccc1F [Example 6, 3-({[(1R)-6-[(2-fluorophenyl)(methyl)amino]-1,2,3,4-tetrahydronaphthalen-1-yl]methyl}amino)pyridine-4-carboxylic acid] | 100 to 1000 nM | ≤ 100 nM | –
13 | CN(c1ccc2c(c1)CCC[C@H]2CNc1cnccc1C(=O)O)c1cccs1 [Example 144, 3-({[(1R)-6-[methyl(thiophen-2-yl)amino]-1,2,3,4-tetrahydronaphthalen-1-yl]methyl}amino)pyridine-4-carboxylic acid] | 100 to 1000 nM | ≤ 100 nM | –
14 | COc1cccc(N(C)c2ccc3c(c2)CCC[C@H]3CNc2cnccc2C(=O)O)n1 [Example 121, 3-({[(1R)-6-[(6-methoxypyridin-2-yl)(methyl)amino]-1,2,3,4-tetrahydronaphthalen-1-yl]methyl}amino)pyridine-4-carboxylic acid] | 100 to 1000 nM | ≤ 100 nM | –
15 | O=C(O)c1ccncc1NC[C@@H]1CCCc2cc(S(=O)(=O)c3ccccc3)ccc21 [Example 82, 3-({[(1R)-6-(benzenesulfonyl)-1,2,3,4-tetrahydronaphthalen-1-yl]methyl}amino)pyridine-4-carboxylic acid] | 100 to 1000 nM | > 10000 nM | –
16 | CN(c1ccc2c(c1)COC2)c1ccc2c(c1)CCC[C@H]2CNc1cnccc1C(=O)O [Example 132, 3-({[(1R)-6-[(1,3-dihydro-2-benzofuran-5-yl)(methyl)amino]-1,2,3,4-tetrahydronaphthalen-1-yl]methyl}amino)pyridine-4-carboxylic acid] | 100 to 1000 nM | ≤ 100 nM | –
17 | O=C(O)c1ccncc1NCC1CCCc2cc(N3CCCC3=O)ccc21 (stereo not drawn) [Example 3, 3-({[6-(2-oxopyrrolidin-1-yl)-1,2,3,4-tetrahydronaphthalen-1-yl]methyl}amino)pyridine-4-carboxylic acid] | 100 to 1000 nM | > 10000 nM | –
18 | Cc1ccccc1Sc1ccc2c(c1)OCC[C@H]2CNc1cnccc1C(=O)O [Example 51, 3-({[(4R)-7-[(2-methylphenyl)sulfanyl]-3,4-dihydro-2H-1-benzopyran-4-yl]methyl}amino)pyridine-4-carboxylic acid] | 100 to 1000 nM | 1000 to 10000 nM | –
19 | O=C(O)c1ccncc1NCC1CCCc2cc(OCC3CCOCC3)ccc21 (stereo not drawn) [Example 63, 3-({[6-(oxan-4-ylmethoxy)-1,2,3,4-tetrahydronaphthalen-1-yl]methyl}amino)pyridine-4-carboxylic acid] | 100 to 1000 nM | > 10000 nM | –
20 | O=C(O)c1ccncc1NC[C@@H]1CCCc2cc(Oc3ccc(F)cc3F)ccc21 [Example 65, 3-({[(1R)-6-(2,4-difluorophenoxy)-1,2,3,4-tetrahydronaphthalen-1-yl]methyl}amino)pyridine-4-carboxylic acid] | 100 to 1000 nM | 100 to 1000 nM | –
21 | O=C(O)c1ccncc1NC[C@@H]1CCCc2cc(N(CCO)c3ccccc3)ccc21 [Example 147, 3-({[(1R)-6-[(2-hydroxyethyl)(phenyl)amino]-1,2,3,4-tetrahydronaphthalen-1-yl]methyl}amino)pyridine-4-carboxylic acid] | 100 to 1000 nM | 100 to 1000 nM | –
22 | Cc1ccccc1N(C)c1ccc2c(c1)OCC[C@H]2CNc1cnccc1C(=O)O [Example 111, 3-({[(4R)-7-[methyl(2-methylphenyl)amino]-3,4-dihydro-2H-1-benzopyran-4-yl]methyl}amino)pyridine-4-carboxylic acid] | 100 to 1000 nM | 100 to 1000 nM | –
23 | CCCOc1ccc2c(c1)CCCC2CNc1cnccc1C(=O)O (stereo not drawn) [Example 59, 3-{[(6-propoxy-1,2,3,4-tetrahydronaphthalen-1-yl)methyl]amino}pyridine-4-carboxylic acid] | 100 to 1000 nM | 1000 to 10000 nM | –
24 | CN1CCC(c2ccc(N(C)c3ccc4c(c3)OCC[C@H]4CNc3cnccc3C(=O)O)cc2)CC1 [Example 205, 3-({[(4R)-7-{methyl[4-(1-methylpiperidin-4-yl)phenyl]amino}-3,4-dihydro-2H-1-benzopyran-4-yl]methyl}amino)pyridine-4-carboxylic acid] | ≤ 100 nM | > 10000 nM | –
25 | O=C(O)c1ccncc1NC[C@@H]1CCCc2cc(Sc3ccccc3F)ccc21 [Example 73, 3-({[(1R)-6-[(2-fluorophenyl)sulfanyl]-1,2,3,4-tetrahydronaphthalen-1-yl]methyl}amino)pyridine-4-carboxylic acid] | 100 to 1000 nM | 100 to 1000 nM | –
26 | CN(c1ccc(C2CCOCC2)cc1)c1ccc2c(c1)CCC[C@H]2CNc1cnccc1C(=O)O [Example 175, 3-({[(1R)-6-{methyl[4-(oxan-4-yl)phenyl]amino}-1,2,3,4-tetrahydronaphthalen-1-yl]methyl}amino)pyridine-4-carboxylic acid] | 1000 to 10000 nM | ≤ 100 nM | –
27 | Cc1c(F)cccc1-c1ccc2c(c1)OCC[C@H]2CNc1cnccc1C(=O)O [Example 42, 3-({[(4R)-7-(3-fluoro-2-methylphenyl)-3,4-dihydro-2H-1-benzopyran-4-yl]methyl}amino)pyridine-4-carboxylic acid] | 100 to 1000 nM | 100 to 1000 nM | –
28 | COc1cc2c(cc1C)C(CNc1cnccc1C(=O)O)CCC2 (stereo not drawn) [Example 94, 3-{[(6-methoxy-7-methyl-1,2,3,4-tetrahydronaphthalen-1-yl)methyl]amino}pyridine-4-carboxylic acid] | 100 to 1000 nM | 100 to 1000 nM | –
29 | CN(c1ccc(C#N)cc1)c1ccc2c(c1)OCC[C@H]2CNc1cnccc1C(=O)O [Example 119, 3-({[(4R)-7-[(4-cyanophenyl)(methyl)amino]-3,4-dihydro-2H-1-benzopyran-4-yl]methyl}amino)pyridine-4-carboxylic acid] | 100 to 1000 nM | 100 to 1000 nM | –
30 | N#Cc1ccccc1-c1ccc2c(c1)OCC[C@H]2CNc1cnccc1C(=O)O [Example 124, 3-({[(4R)-7-(2-cyanophenyl)-3,4-dihydro-2H-1-benzopyran-4-yl]methyl}amino)pyridine-4-carboxylic acid] | 100 to 1000 nM | 1000 to 10000 nM | –
